One block for each compound: values may come before it.
Experiments:
human 5-HT1A receptor = biological target: T1, human 5-HT1A receptor (Homo sapiens, UniProt P08908); test: In vitro functional activity: antagonism of 8-OH-DPAT inhibition of forskolin-stimulated cAMP production; format: cell-based; conditions: antagonism of 10 nM 8-OH-DPAT inhibition of forskolin-stimulated cAMP production; read-out: 5-HT1A Antagonist Activity cAMP Assay IC50
T1 construct: expressed in transfected cells
T1 sequence (P08908 1-422): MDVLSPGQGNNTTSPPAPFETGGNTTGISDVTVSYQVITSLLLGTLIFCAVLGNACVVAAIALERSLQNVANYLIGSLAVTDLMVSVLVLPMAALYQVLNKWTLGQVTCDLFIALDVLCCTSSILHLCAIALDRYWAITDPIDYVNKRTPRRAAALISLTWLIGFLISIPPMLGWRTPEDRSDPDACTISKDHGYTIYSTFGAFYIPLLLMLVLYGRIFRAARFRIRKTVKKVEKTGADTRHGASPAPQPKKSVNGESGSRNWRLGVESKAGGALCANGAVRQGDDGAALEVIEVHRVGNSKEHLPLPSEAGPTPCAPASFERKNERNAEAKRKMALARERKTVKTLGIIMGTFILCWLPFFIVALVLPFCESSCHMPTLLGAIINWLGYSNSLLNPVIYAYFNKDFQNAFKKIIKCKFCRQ

5-HT1A [1] = biological target: T2, 5-HT1A (Rattus norvegicus, UniProt P19327); test: Duration of action in the Fixed Responding Model; format: in vivo, rats
T2 construct: from tissue; host or cells: whole animal (rat), behavioural model
T2 sequence (P19327 1-422): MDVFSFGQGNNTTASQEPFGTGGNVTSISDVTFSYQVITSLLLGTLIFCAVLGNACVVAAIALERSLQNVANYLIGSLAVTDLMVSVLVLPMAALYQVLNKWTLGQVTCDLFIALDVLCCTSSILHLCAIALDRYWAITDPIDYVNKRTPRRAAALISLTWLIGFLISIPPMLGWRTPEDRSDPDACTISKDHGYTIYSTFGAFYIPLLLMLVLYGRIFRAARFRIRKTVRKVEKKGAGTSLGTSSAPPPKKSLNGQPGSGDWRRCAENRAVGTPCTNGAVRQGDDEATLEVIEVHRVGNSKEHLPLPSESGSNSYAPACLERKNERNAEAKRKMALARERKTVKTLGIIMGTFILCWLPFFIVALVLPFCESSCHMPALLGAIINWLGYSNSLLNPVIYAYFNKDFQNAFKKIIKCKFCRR
Excerpt: All drug and vehicle administrations were made by the subcutaneous route.

5-HT1A [2] = biological target: T2, 5-HT1A; test: Fixed Responding Model, in vivo 5-HT1A antagonism of 8-OH-DPAT-induced decrease in response rate; set-up: species or system rats
Protocol: The ability of the compounds to function in vivo as 5-HT1A antagonists was assessed in rats using a Fixed Responding Model (D. Blackman, in “Operant Conditioning: An Experimental Analysis of Behavior”, J. Butcher, ed., Methuen and Co., Ltd., London). In this model rats are trained to respond (lever pressing) under a fixed-ratio 30 schedule of food presentation in order to receive a food pellet reinforcer. […] The 5-HT1A antagonist activity of a test compound is determined by measuring its ability to antagonize this agonist-induced decrease in response rate.

[3] = biological target: T3, cloned human 5-HT1A receptors (Homo sapiens, UniProt P08908); test: Binding to cloned human 5-HT1A receptors in CHO cells, [3H]8-OH-DPAT radioligand; conditions: read-out: 5-HT1A Affinity Ki
T3 construct: expressed in transfected cells; host or cells: CHO cells
T3 sequence (P08908 1-422): T1 sequence (P08908 1-422)

[4] = system: sexually experienced male rats (Sprague-Dawley rats); test: Non-contact penile erections in sexually experienced male rats (animal model of drug-induced sexual dysfunction); format: in vivo; conditions: for Reversal of fluoxetine-induced sexual dysfunction: administered acutely after 7 or 14 days of fluoxetine treatment; for Prevention of deficit in non-contact penile erections produced by chronic fluoxetine: co-administered with fluoxetine 10 mg/kg for 7 or 14 days, Example compound 3 1 mg/kg, Example compound 2 0.3 mg/kg
Protocol: The animal model is based on the finding that sexually experienced rats that are administered an SSRI, a drug used to treat certain conditions such as depression, display a reduction in the number of non-contact penile erections. SSRI treatment is associated with sexual dysfunction in human subjects. In general, the animal model exposes sexually experienced male rats (Sprague-Dawley rats) to female rats in estrous in a novel testing arena that is not the regular housing environment.
The ability of various drugs associated with sexual dysfunction in humans to cause sexual dysfunction in the animal model was tested using three different drugs, bupropion (20 mg/kg), desipramine (10 mg/kg), and fluoxetine (10 mg/kg), or vehicle alone (0.9% saline), each administered intraperitoneally (i.p.), once per day for 14 days. After the treatment period, animals were tested for the frequency of non-contact penile erections over a 30 minute trial period.
To examine the time course of the effects of a drug that causes sexual dysfunction, rats that were handled and tested as described above were treated acutely: rats were treated with vehicle for 6 days, and on the test day (day 7) instead of vehicle, the animals received a single dose of fluoxetine in vehicle (i.p.). For a subchronic (7 day) study, fluoxetine was administered each day for 7 days and the animals were evaluated on test day 7. For the chronic 14 day study, fluoxetine was administered each day for 14 days and the animals were tested on day 14. Each fluoxetine dose was 10 mg/kg in vehicle and was delivered i.p. on each of the test days as described above.
To test the ability of a 5-HT1A antagonist to ameliorate the effects of sexual dysfunction, sexually experienced rats were administered an SSRI using an acute or subchronic (7 day) schedule and then tested for sexual function as described above.
In these experiments, rats were treated with vehicle only on days 1-13 then administered a single acute dose of 0.1 mg/kg of the compound (group 1), vehicle only for days 1-13 and a single dose of 1.0 mg/kg compound in vehicle on day 14 (group 2), only vehicle on days 1-14 (group 3), fluoxetine on days 1-14 (group 4), fluoxetine on days 1-13 and a single administration of 0.1 mg/kg of the compound and fluoxetine on day 14 (group 5); and fluoxetine on days 1-13 and a single dose of 1.0 mg/kg compound with fluoxetine on day 14 (group 6). For each group, behavior testing was performed for 30 minutes immediately following drug administration on day 14 only.
Experiments were conducted to assess the ability of a 5-HT1A antagonist to prevent the effects of SSRI treatment. Rats, as described supra, were co-administered a 5-HT1A antagonist and an SSRI. […] The administered SSRI was fluoxetine (10 mg/kg). The 5-HT1A antagonist and SSRI were co-administered for 7 or 14 days with the SSRI.

- IC50 (human 5-HT1A receptor): 0.025 µM
- Antagonism of agonist-induced decrease in responding (5-HT1A [1]; 30 minutes after administration): completely antagonize
- Duration of action (5-HT1A [1]; Fixed Responding Model, sc): > 4 h
- Dose Which Shifts Agonist Dose-response Curve by 10-fold (5-HT1A [1]; administered 30 minutes prior to 8-OH-DPAT): 1.0 mg/kg, sc
- 5-HT1A antagonist effect on response rate (5-HT1A [1]; agonist given 2 hours following test drug administration): complete 5-HT1A antagonist effects
- 5-HT1A antagonist effect on response rate (5-HT1A [1]; four hours post-administration): complete antagonism
- % Response Rate, 0.5 hour pretreatment (5-HT1A [1]; test compound sc (Table 3 dose) 0.5 hour before 0.3 mg/kg 8-OH-DPAT, 100% = vehicle control response rate): 100 ± 7%
- % Response Rate, 2 hour pretreatment (5-HT1A [1]; test compound sc (Table 3 dose) 2 hours before 0.3 mg/kg 8-OH-DPAT, 100% = vehicle control response rate): 118 ± 13%
- % Response Rate, 4 hour pretreatment (5-HT1A [1]; test compound sc (Table 3 dose) 4 hours before 0.3 mg/kg 8-OH-DPAT, 100% = vehicle control response rate): 99 ± 16%
- Reversal of decrease in response rate induced by 8-OH-DPAT (5-HT1A [2]; 1 mg/kg dose, 0.3 mg/kg 8-OH-DPAT): completely reverses
- Response Rate (5-HT1A [2]; 8-OH-DPAT (0.3 mg/kg sc) + Example compound 1 (1 mg/kg sc), vehicle control 2.4 ± 0.5): 2.5 ± 0.2 responses/second
- Ki [3]: 0.0016 µM
Compound: C[C@H](CN(C(=O)c1ccc(C#N)cc1)c1ccccn1)N1CCN(c2cccc3c2OCCO3)CC1 [Example 1, (R)-4-Cyano-N-{2-[4-(2,3-Dihydro-Benzo[1,4]dioxin-5-yl)-Piperazin-1-yl]-Propyl}-N-Pyridin-2-yl-Benzamide]

Compound: COc1ccccc1N1CCN(CCN(C(=O)C2CCCCC2)c2ccccn2)CC1 [Example compound 2, N-[2-[4-(2-methoxyphenyl)-1-piperazinyl]ethyl]-N-(2-pyridinyl)cyclohexanecarboxamide]
- Reversal of fluoxetine-induced sexual dysfunction [4]: complete and significant reversal
- Prevention of deficit in non-contact penile erections produced by chronic fluoxetine [4]: prevented the deficit in non-contact penile erections
- Effect on drug-induced sexual dysfunction ([4]; single acute dose after a period of drug-induced sexual dysfunction): ameliorated sexual dysfunction

Compound: CNCCC(Oc1ccc(C(F)(F)F)cc1)c1ccccc1 (stereo not drawn) [fluoxetine, N-methyl-3-(p-trifluoromethylphenoxy)-3-phenylpropylamine, reference compound]
- Sexual dysfunction (number of non-contact penile erections in 30 minutes) ([4]; chronic (14 days) fluoxetine 10 mg/kg i.p.): significant increase in sexual dysfunction
- Sexual dysfunction (number of non-contact penile erections in 30 minutes) ([4]; sub-chronic (7 days) fluoxetine 10 mg/kg i.p.): significant increase in sexual dysfunction

Compound: (R)-N-(2-methyl-(4-indolyl-1-piperazinyl)ethyl)-N-(2-pyridinyl)cyclohexanecarboxamide [Example compound 3]
- Reversal of fluoxetine-induced sexual dysfunction [4]: complete and significant reversal
- Prevention of deficit in non-contact penile erections produced by chronic fluoxetine [4]: prevented the deficit in non-contact penile erections
- Reversal of deficits in number of non-contact penile erections ([4]; single dose 0.1 mg/kg on day 14 of fluoxetine 10 mg/kg/day i.p.): full reversal
- Reversal of deficits in number of non-contact penile erections ([4]; single dose 1.0 mg/kg on day 14 of fluoxetine 10 mg/kg/day i.p.): full reversal
